The values that follow come from patent publication US8383094B2, “Hepatitis C virus inhibitors” (Bristol-Myers Squibb Company, priority 2008, dated 2013).

The first test has as its system HCV 1b genotype. Kind of test: HCV Replicon assay (HCV-neo replicon cells, wild-type). The class given is cell-based. The note with it: HCV 1b genotype replicon; range class A-D; read-out: 1b EC50 (in μM or range). (In general: In antiviral work, replicon cells carry a viral genome segment that copies itself.)
As to `CCCOC(=O)N[C@@H](C(=O)N1CCC[C@H]1C(=O)Nc1ccc(C#Cc2ccc(NC(=O)[C@@H]3CCCN3C(=O)[C@H](NC(=O)OCCC)c3ccccc3)cc2)cc1)c1ccccc1` [VN56, Dipropyl (1,2-ethynediylbis(4,1-phenylenecarbamoyl(2S)-2,1-pyrrolidinediyl((1R)-2-oxo-1-phenyl-2,1-ethanediyl)))biscarbamate], the EC50 was below 4.57 nM.

Regarding `C=Cc1cccnc1C(=O)N1CCC[C@H]1C(=O)Nc1ccc(C#Cc2ccc(NC(=O)[C@@H]3CCCN3C(=O)c3ncccc3C=C)cc2)cc1` [Example D36.3, (2S,2′S)-N,N′-(4,4′-(ethyne-1,2-diyl)bis(4,1-phenylene))bis(1-(3-vinylpicolinoyl)pyrrolidine-2-carboxamide)], the EC50 lay in the range of 100 to 999 nM.

Consider `CCc1cccnc1C(=O)N1CCC[C@H]1C(=O)Nc1ccc(C#Cc2ccc(NC(=O)[C@@H]3CCCN3C(=O)c3ncccc3CC)cc2)cc1` [Example D36.4, (2S,2′S)-N,N′-(4,4′-(ethyne-1,2-diyl)bis(4,1-phenylene))bis(1-(3-ethylpicolinoyl)pyrrolidine-2-carboxamide)], for which the EC50 lay within 4.57 to 99 nM.

The same test, now with this note: HCV 1b genotype replicon; read-out: 1b EC50 (in μM or range).
Consider `CN1C[C@@H]2C[C@H]1CN2C(C(=O)N1CCC[C@H]1C(=O)Nc1ccc(C#Cc2ccc(NC(=O)[C@@H]3CCCN3C(=O)C(c3ccccc3)N3C[C@@H]4C[C@H]3CN4C)cc2)cc1)c1ccccc1` (stereo partly drawn) [VN18, (2S,2′S)-N,N′-(1,2-ethynediyldi-4,1-phenylene)bis(1-(((1S,4S)-5-methyl-2,5-diazabicyclo[2.2.1]hept-2-yl)(phenyl)acetyl)-2-pyrrolidinecarboxamide)], for which the EC50 worked out at 130 nM.

Staying with this test, now noted: Hepatitis C virus, HCV 1b genotype replicon; range class A-D; read-out: 1b EC50 (in μM or range).
With `O=C(Nc1ccc(C#Cc2ccc(NC(=O)[C@@H]3CCCN3C(=O)c3nc(Cl)cc4ccccc34)cc2)cc1)[C@@H]1CCCN1C(=O)Cc1cccnc1` [Example D40, (2S)-1-((3-Chloro-1-isoquinolinyl)carbonyl)-N-(4-((4-((((2S)-1-(3-pyridinylacetyl)-2-pyrrolidinyl)carbonyl)amino)phenyl)ethynyl)phenyl)-2-pyrrolidinecarboxamide], the EC50 was in the range of 4.57 to 99 nM.

Turning to `CC(=O)N1CCC[C@H]1C(=O)Nc1ccc(C#Cc2ccc(NC(=O)C3CCN(C(=O)OCc4ccccc4)C3)cc2)cc1` (stereo partly drawn) [Example D4, Benzyl 3-((4-((4-((1-acetyl-L-prolyl)amino)phenyl)ethynyl)phenyl)carbamoyl)-1-pyrrolidinecarboxylate], the concentration giving a half-maximal response (EC50) lay within 1000 to 10000 nM.

Consider `O=C(Nc1ccc(C#Cc2ccc(NC(=O)[C@@H]3CCCN3C(=O)C(c3ccccc3)N3CC[C@@H](O)C3)cc2)cc1)[C@@H]1CCCN1C(=O)C(c1ccccc1)N1CC[C@@H](O)C1` (stereo partly drawn) [VN52, (2S,2′S)-N,N′-(1,2-ethynediyldi-4,1-phenylene)bis(1-(((3R)-3-hydroxy-1-pyrrolidinyl)(phenyl)acetyl)-2-pyrrolidinecarboxamide)], for which the EC50 is below 4.57 nM.

Take `O=C(Nc1ccc(C#Cc2ccc(NC(=O)[C@@H]3CCCN3C(=O)c3nccc4ccccc34)cc2)cc1)[C@@H]1CCCN1C(=O)c1nccc2ccccc12` [Example D28, (2S,2′S)-N,N′-(1,2-ethynediyldi-4,1-phenylene)bis(1-(1-isoquinolinylcarbonyl)-2-pyrrolidinecarboxamide)]: the EC50 is 100 to 999 nM.

As to `CCN(C)C(C(=O)N1CCC[C@H]1C(=O)Nc1ccc(C#Cc2ccc(NC(=O)[C@@H]3CCCN3C(=O)C(c3ccccc3)N(C)CC)cc2)cc1)c1ccccc1` (single isomer, unassigned) [VN36], the half-maximal effective concentration (EC50) was below 4.57 nM.

As for `CCN(C)C(C(=O)N1CCC[C@H]1C(=O)Nc1ccc(C#Cc2ccc(NC(=O)[C@@H]3CCCN3C(=O)C(c3ccccc3)N(C)CC)cc2)cc1)c1ccccc1` (stereo partly drawn) [VN47, (2S,2′S)-N,N′-(1,2-ethynediyldi-4,1-phenylene)bis(1-((ethyl(methyl)amino)(phenyl)acetyl)-2-pyrrolidinecarboxamide)], the EC50 lay in the range of 4.57 to 99 nM.

For the compound `C[C@@](O)(C(=O)N1CCC[C@H]1C(=O)Nc1ccc(C#Cc2ccc(NC(=O)[C@@H]3CCCN3C(=O)[C@@](C)(O)c3ccccc3)nc2)cn1)c1ccccc1` [Example D51, (2S,2′S)-N,N′-(1,2-ethynediyldi-5,2-pyridinediyl)bis(1-((2S)-2-hydroxy-2-phenylpropanoyl)-2-pyrrolidinecarboxamide)], the EC50 is below 4.57 nM.

Consider `C[C@@H](C(=O)N1CCC[C@H]1C(=O)Nc1ccc(C#Cc2ccc(NC(=O)[C@@H]3CCCN3C(=O)[C@H](C)c3ccccc3)nc2)cn1)c1ccccc1` [Example D50, (2S,2′S)-N,N′-(1,2-ethynediyldi-5,2-pyridinediyl)bis(1-((2R)-2-phenylpropanoyl)-2-pyrrolidinecarboxamide)], for which the concentration giving a half-maximal response (EC50) was below 4.57 nM.

Take `O=C(Nc1ccc(C#Cc2ccc(NC(=O)[C@@H]3CCCN3C(=O)C(F)c3ccccc3)cc2)cc1)[C@@H]1CCCN1C(=O)C(F)c1ccccc1` (stereo partly drawn) [VN8, (2S,2′S)-N,N′-(1,2-ethynediyldi-4,1-phenylene)bis(1-(fluoro(phenyl)acetyl)-2-pyrrolidinecarboxamide)]: the 50% effective concentration (EC50) is below 4.57 nM.

As for `C[C@@](O)(C(=O)N1CCC[C@H]1C(=O)Nc1ccc(C#Cc2ccc(NC(=O)[C@@H]3CCCN3C(=O)[C@@](C)(O)c3ccccc3)cc2)cc1)c1ccccc1` [VN1, (2S,2′S)-N,N′-(1,2-ethynediyldi-4,1-phenylene)bis(1-((2S)-2-hydroxy-2-phenylpropanoyl)-2-pyrrolidinecarboxamide)], the 50% effective concentration (EC50) was below 4.57 nM.

For the compound `N#Cc1cc2ccccc2c(C(=O)N2CCC[C@H]2C(=O)Nc2ccc(C#Cc3ccc(NC(=O)[C@@H]4CCCN4C(=O)c4nc(C#N)cc5ccccc45)cc3)cc2)n1` [Example D32, (2S,2′S)-N,N′-(1,2-ethynediyldi-4,1-phenylene)bis(1-((3-cyano-1-isoquinolinyl)carbonyl)-2-pyrrolidinecarboxamide)], the concentration giving a half-maximal response (EC50) was in the range of 4.57 to 99 nM.

As for `CN(C)[C@@H](C(=O)N1CCC[C@H]1C(=O)Nc1ccc(C#Cc2ccc(NC(=O)[C@@H]3CCCN3C(=O)[C@@H](c3ccccc3)N(C)C)cc2)cc1)c1ccccc1` [VN23, (2S,2′S)-N,N′-(1,2-ethynediyldi-4,1-phenylene)bis(1-((2R)-2-(dimethylamino)-2-phenylacetyl)-2-pyrrolidinecarboxamide)], the EC50 was below 4.57 nM.

Regarding `O=C(Nc1ccc(C#Cc2ccc(NC(=O)[C@@H]3CCCN3C(=O)/C=C/c3ccccc3)nc2)cn1)[C@@H]1CCCN1C(=O)/C=C/c1ccccc1` [Example D49, (2S,2′S)-N,N′-(1,2-ethynediyldi-5,2-pyridinediyl)bis(1-((2E)-3-phenyl-2-propenoyl)-2-pyrrolidinecarboxamide)], the concentration for a half-maximal effect (EC50) fell in the range of 100 to 999 nM.

Turning to `O=C(Nc1ccc(C#Cc2ccc(NC(=O)[C@@H]3CCCN3C(=O)Cc3ccccc3)nc2)cn1)[C@@H]1CCCN1C(=O)Cc1ccccc1` [Example D48, (2S,2′S)-N,N′-(1,2-ethynediyldi-5,2-pyridinediyl)bis(1-(phenylacetyl)-2-pyrrolidinecarboxamide)], the EC50 was below 4.57 nM.

In the case of `COc1cccc2c(C(=O)N3CCC[C@H]3C(=O)Nc3ccc(C#Cc4ccc(NC(=O)[C@@H]5CCCN5C(=O)Cc5cccnc5)cc4)cc3)nc(Cl)cc12` [Example D45, (2S)-1-((3-Chloro-5-methoxy-1-isoquinolinyl)carbonyl)-N-(4-((4-((((2S)-1-(3-pyridinylacetyl)-2-pyrrolidinyl)carbonyl)amino)phenyl)ethynyl)phenyl)-2-pyrrolidinecarboxamide], the EC50 fell in the range of 100 to 999 nM.

In the case of `CC(C)(C)OC(=O)N[C@@H](C(=O)N1CCC[C@H]1C(=O)Nc1ccc(C#Cc2ccc(NC(=O)[C@@H]3CCCN3C(=O)[C@H](NC(=O)OC(C)(C)C)c3ccccc3)cc2)cc1)c1ccccc1` [VN23, Step a, di-tert-butyl(1,2-ethynediylbis(4,1-phenylenecarbamoyl(2S)-2,1-pyrrolidinediyl((1R)-2-oxo-1-phenyl-2,1-ethanediyl)))biscarbamate], the EC50 was below 4.57 nM.

For `O=C(Nc1ccc(C#Cc2ccc(NC(=O)[C@@H]3CCCN3C(=O)[C@@H](c3ccccc3)N3CCCC3)cc2)cc1)[C@@H]1CCCN1C(=O)[C@@H](c1ccccc1)N1CCCC1` [VN12, (2S,2′S)-N,N′-(1,2-ethynediyldi-4,1-phenylene)bis(1-((2R)-2-phenyl-2-(1-pyrrolidinyl)acetyl)-2-pyrrolidinecarboxamide)], the EC50 was below 4.57 nM.

Consider `O=C(Nc1ccc(C#Cc2ccc(NC(=O)[C@@H]3CCCN3C(=O)OCc3ccccc3)cc2)cc1)[C@@H]1CCCN1C(=O)OCc1ccccc1` [Example D1, Dibenzyl(2S,2′S)-2,2′-(1,2-ethynediylbis(4,1-phenylenecarbamoyl))di(1-pyrrolidinecarboxylate)], for which the EC50 lay in the range of 4.57 to 99 nM.

Staying with this test, now noted: Hepatitis C virus, HCV 1b genotype replicon; read-out: 1b EC50 (in μM or range).
Turning to `O=CN[C@@H](C(=O)N1CCC[C@H]1C(=O)Nc1ccc(C#Cc2ccc(NC(=O)[C@@H]3CCCN3C(=O)[C@H](NC=O)c3ccccc3)cc2)cc1)c1ccccc1` [VN11, (2S,2′S)-N,N′-(1,2-ethynediyldi-4,1-phenylene)bis(1-((2R)-2-formamido-2-phenylacetyl)-2-pyrrolidinecarboxamide)], the EC50 stood at 0.01 nM.

In the case of `O=C(Nc1ccc(C#Cc2ccc(NC(=O)[C@@H]3CCCN3C(=O)[C@@H](O)c3ccccc3)cc2)cc1)[C@@H]1CCCN1C(=O)c1nc(Cl)cc2ccccc12` [Example D42, (2S)-1-((3-Chloro-1-isoquinolinyl)carbonyl)-N-(4-((4-((((2S)-1-((2S)-2-hydroxy-2-phenylacetyl)-2-pyrrolidinyl)carbonyl)amino)phenyl)ethynyl)phenyl)-2-pyrrolidinecarboxamide], the EC50 was 17 nM.

On to `O=C(Nc1ccc(C#Cc2ccc(NC(=O)[C@@H]3CCCN3C(=O)C(c3ccccc3)N3CC[C@H](O)C3)cc2)cc1)[C@@H]1CCCN1C(=O)C(c1ccccc1)N1CC[C@H](O)C1` (stereo partly drawn) [VN50, (2S,2′S)-N,N′-(1,2-ethynediyldi-4,1-phenylene)bis(1-(((3S)-3-hydroxy-1-pyrrolidinyl)(phenyl)acetyl)-2-pyrrolidinecarboxamide)], for which the EC50 worked out at 0.5 nM.

In the case of `CC(=O)N1CCC[C@H]1C(=O)Nc1ccc(C#Cc2ccc(NC(=O)[C@@H]3CCCCN3C(=O)OCc3ccccc3)cc2)cc1` [Example D11, Benzyl (2S)-2-((4-((4-((1-acetyl-L-prolyl)amino)phenyl)ethynyl)phenyl)carbamoyl)-1-piperidinecarboxylate], the EC50 turned out to be 590 nM.

The EC50 is the midpoint of the concentration-response curve.
